According to patent US5252575A, “Antiviral purine derivatives with improved gastrointestinal absorption” (Beecham Group p.l.c., priority 1992, dated 1993):
Read-outs that look alike come from different tables or passages of the source.

Legend:
[1] = Concentrations of BRL44385 and its prodrugs detected in the blood of mice after oral administration (Table 1); format: in vivo, female Balb/c mice; settings: mouse, 200 umol/kg, total 9-alkoxypurines, 0.2 mmol/kg oral gavage
Experimental: |Concentrations of BRL44385 and its Prodrugs Detected in the |Blood of Mice after Oral Administration of |9-(Alkoxymethoxypropoxy)purines^a | ^a Compounds were administered as single doses of 0.2 mmol/kg in 0.1 | ml of 1% (carboxymethyl)cellulose by oral gavage to female Balb/c mice | weighing approximately 20 g. Food was withheld for 18 h prior to the star | of the experiment. Blood was collected by cardiac puncture using | heparinised syringes 15, 60 and 180 min after dosing. Equal volumes (0.2 | ml) from three mice were pooled at each time point and 0.6 ml of 16% | trichloroacetic acid was added. After centrifugation, 0.5 ml of | supernatent was added to 0.1 ml of saturated aqueous NaHCO3 followed | by the addition of 0.6 ml of 0.4M NH4 OAc (pH 6.0) and the mixture | analysed by HPLC. | ^b 9-Alkoxypurine concentrations <2 μM were detected in the blood | 180 min after dosing.

[2] = Further evaluation of BRL55792 as oral prodrug of BRL44385: AUC in blood of squirrel monkeys (Table 2); format: in vivo; settings: 110 umol/kg, squirrel monkey, single oral dose 0.11 mmol/kg, 0-8 h, 3 animals
Experimental: |Further evaluation of BRL55792 as a potential oral prodrug of BRL44385 in |rats and squirrel monkeys | ^a Compounds were administered as a single oral dose at either 0.2 | mmol/kg (equivalent to 44.5 mg/kg free BRL44385) to rats with an | indwelling aortic cannula or 0.11 mmol/kg (equivalent to 25 mg/kg free | BRL44385) to squirrel monkeys. Sequential blood samples were collected up | to 8 h after compound administration. Following treatment as described in | table 1, the samples were assayed for BRL55792, BRL44385 and intermediate | matabolites. | ^b Mean areaunder-the-curve values were calculated from blood | concentrationtime profiles from 3 animals by the trapezoidal rule (0-6 h | for rats and 0-8 h for squirrel monkeys). | ^c AUC of BRL44385 from prodrug/AUC of BRL44385 from oral BRL44385

Row | concentration at 0.25 h ([1]; 15 min, read-out: Concn in blood at time (min) after dosing: total 9-alkoxypurines, 15) [µM] | concentration at 1 h ([1]; 60 min, read-out: Concn in blood at time (min) after dosing: total 9-alkoxypurines, 60) [µM] | AUC at 8 h ([2]; analyte BRL44385, read-out: Mean Area-under-the-curve ± SEM for BRL 44385) [µM·h] | AUC at 8 h ([2]; analyte BRL55792, read-out: Mean Area-under-the-curve ± SEM for BRL 55792) [µM·h] | Structure (SMILES)
1 | 8.9 | 4 | 13 ± 2.4 | – | Nc1nc(O)c2ncn(OCCCO)c2n1 [Example E1, 9-(3-hydroxyprop-1-oxy)guanine]
2 | – | – | – | 13 ± 5.7 | CC(C)OCOCCCOn1cnc2cnc(N)nc21 [Example 1, 2-Amino-9-[3-(isopropoxymethoxy)propoxy)purine]
